Holding throughout (type): biochemical
Experiment [1] concerns the target T1, KDR-C1045A (Homo sapiens, UniProt P35968, C1045A).
T1 construct: beginning at Val-805 (forward, 5′ tag cgg ccg cGT CATGGATCCAGATGAACTCCCATT (lower case—NotI site)) and ending at Val-1356; GST-His (thrombin cleavage site) (N); made in house; the mutant was also made in HEK293
The experiment can be described thus: Enzyme wash-out assay, KDR-C1045A mutant enzyme. As to the method:
(§1) Parallel plates were tested for each test compound wherein one plate was processed as described above in section 6.3 and the second plate was washed three times in 100 ul of 4 mM HEPES, pH 7.4, to remove unbound compound. 1× kinase buffer (30 ul 1 mM MnCl2, 4 mM HEPES, pH 7.4, 20 μM Na3VO4) and 20 ul of ATP/MgCl2 were then added to the wash-out plate. The KDR-FLAG enzyme, as described in 6.1, was used in these assays.
(§2) The protein was expressed in HEK293 or Sf9 cells as described for the wild type protein in sections 6.1 and 6.2. The protein was also purified using the FLAG or GST/His tags.
(§3) This mutated protein was designated KDR-C1045A. Additionally, for comparison, the test compounds were assayed using the KDR wild type enzyme in both a basic enzyme assay as well as the enzyme wash-out assay.

Experiment [2] concerns the target T1, KDR-C1045A. The experiment can be described thus: Basic enzyme assay, KDR-C1045A mutant enzyme. As to the method: as §2, §3
For experiment [3], the target named is T2, KDR wild type enzyme (Homo sapiens, UniProt P35968).
T2 construct: beginning at Val-805 (forward, 5′ tag cgg ccg cGT CATGGATCCAGATGAACTCCCATT (lower case—NotI site)) and ending at Val-1356; GST-His (thrombin cleavage site) (N, cleaved yes); made in house; HEK293 possible
The experiment can be described thus: Basic enzyme assay, KDR wild type (GST-His-KDR-IC). The note with it: mean ± standard deviation (N). As to the method:
as §3

The target of experiment [4] is T2, KDR wild type enzyme. The experiment can be described thus: Enzyme wash-out assay, KDR wild type. As to the method:
as §1, §3

Experiment [5] has as its target T3, KDR-IC-FLAG (human KDR, VEGF-receptor 2) (Homo sapiens, UniProt P35968).
T3 construct: starting at Met-806 (underlined) (5′-ATGGATCCAGATGAACTCCCATTG) and ending at Val-1356; made in house
The experiment can be described thus: KDR kinase enzyme assay (DELFIA) using KDR-IC-FLAG kinase, no wash-out. The note with it: 10 uM ATP. From the text: Controls were done by adding DMSO alone, i.e., no test compound, to wells containing the master mix of enzyme plus kinase buffer.

Experiment [6] deals with T4, KDR-FLAG enzyme (human KDR) (Homo sapiens, UniProt P35968).
T4 construct: starting at Met-806 (underlined) (5′-ATGGATCCAGATGAACTCCCATTG) and ending at Val-1356; made in house
In words: Enzyme wash-out assay, KDR-FLAG enzyme. The following applies: plate washed three times before ATP addition. As to the method:
as §1

Bounds are passed on as bounds.

By IC50 is commonly meant the concentration that inhibits the measured activity by half.

T2 sequence (P35968 805-1356): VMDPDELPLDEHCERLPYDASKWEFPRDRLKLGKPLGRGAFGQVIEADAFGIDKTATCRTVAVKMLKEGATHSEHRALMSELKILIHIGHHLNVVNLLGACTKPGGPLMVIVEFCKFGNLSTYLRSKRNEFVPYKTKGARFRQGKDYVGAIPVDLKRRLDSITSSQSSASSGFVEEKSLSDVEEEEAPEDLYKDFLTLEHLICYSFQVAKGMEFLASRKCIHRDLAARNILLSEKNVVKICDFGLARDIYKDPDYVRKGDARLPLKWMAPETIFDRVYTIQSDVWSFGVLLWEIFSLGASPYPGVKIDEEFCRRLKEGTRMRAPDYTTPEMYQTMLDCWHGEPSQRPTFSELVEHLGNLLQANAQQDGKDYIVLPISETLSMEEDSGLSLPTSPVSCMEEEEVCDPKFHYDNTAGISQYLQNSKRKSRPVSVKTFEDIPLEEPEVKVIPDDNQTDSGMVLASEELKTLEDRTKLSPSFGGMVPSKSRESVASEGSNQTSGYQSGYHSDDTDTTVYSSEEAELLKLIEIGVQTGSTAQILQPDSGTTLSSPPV
T1 sequence (P35968 805-1356 C1045A): as the sequence (P35968 805-1356) above, with C241A counted along it
T3 sequence (P35968 806-1356): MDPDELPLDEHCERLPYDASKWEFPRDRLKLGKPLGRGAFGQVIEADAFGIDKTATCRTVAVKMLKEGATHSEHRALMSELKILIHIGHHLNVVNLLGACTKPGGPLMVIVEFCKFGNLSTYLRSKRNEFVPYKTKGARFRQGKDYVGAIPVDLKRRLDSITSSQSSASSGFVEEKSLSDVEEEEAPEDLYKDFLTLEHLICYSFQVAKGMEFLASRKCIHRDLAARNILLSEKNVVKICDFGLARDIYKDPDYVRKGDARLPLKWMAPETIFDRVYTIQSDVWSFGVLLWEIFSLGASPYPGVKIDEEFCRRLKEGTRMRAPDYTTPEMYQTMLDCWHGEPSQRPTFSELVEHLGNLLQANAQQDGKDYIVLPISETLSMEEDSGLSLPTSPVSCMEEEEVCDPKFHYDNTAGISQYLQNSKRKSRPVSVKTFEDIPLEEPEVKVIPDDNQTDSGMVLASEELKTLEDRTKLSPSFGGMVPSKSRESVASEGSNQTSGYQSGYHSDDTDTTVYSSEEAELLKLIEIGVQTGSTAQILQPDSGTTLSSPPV
T4 sequence (P35968 806-1356): as above

With `COc1cc2c(Oc3ccc4[nH]c(C)cc4c3F)c(C#N)cnc2cc1OCC1CCN(C)CC1` [4-[(4-fluoro-2-methyl-1H-indol-5-yl)oxy]-6-methoxy-7-[(1-methylpiperidin-4-yl)methoxy]quinoline-3-carbonitrile], the “KDR-C1045A, WASH OUT percent inhibition at the high dose tested” value in experiment [1] (high dose tested) worked out at 33%. For the same compound, the IC50 was above 1 µM in experiment [1] (mean ± standard deviation (N)); 0.301 ± 0.14 µM in experiment [2] (mean ± standard deviation (N)); 0.0632 ± 0.0235 µM in experiment [3]; 0.277 µM in experiment [4] (wash out, mean ± standard deviation (N)). The “loss of activity, mutant versus wild type KDR in basic enzyme assay” value in experiment [2] (KDR-C1045A vs wild type) is “less than a five times loss of activity”. Moreover, in experiment [4] (wash out vs no wash out), the “loss of activity upon wash out, wild type KDR” value is reported as “partially washed out”.
In the case of `COCCOc1cc2ncnc(NC3=C(Sc4nccs4)C(=O)C=C(OC)C3=O)c2cc1OC` [5-methoxy-3-{[6-methoxy-7-(2-methoxyethoxy)quinazolin-4-yl]amino}-2-(1,3-thiazoylthio)benzo-1,4-quinone], the 50% inhibitory concentration (IC50) in experiment [5] is 17.9 nM; in experiment [6], 33.1 nM.

Values taken from patent US20080268460A1, “Assays to Identify Irreversibly Binding Inhibitors of Receptor Tyrosine Kinases” (Wyeth, priority 2004, published 2008).
